These results are taken from patent publication US8222414B2, “Indole compounds as an inhibitor of cellular necrosis” (LG Life Sciences Ltd., priority 2007, dated 2012).

In one assay the test system is primary hepatocytes isolated from rats. Briefly: Cell protective effects against doxorubicin in hepatocytes (WST-1 cell viability). The format is cell-based. The conditions noted are these: Hepatocyte; primary rat hepatocytes pretreated with compound for 30 min, then doxorubicin; viability by WST-1 after 24-48 h. The method, then:
Various endogenous/exogenous attacks on the cells trigger the mechanisms of cell death which is broadly classified into two types, i.e. apoptosis or necrosis. Using these cell death mechanisms, in the present experimental example, primacy hepatocytes isolated from rats were treated with drugs which were clinically shown to result in serious side-effects of hepatocyte toxicity or various chemicals which derive cell death, and the compounds synthesized in the Examples were estimated for their hepatocyte protective effects, after 24-48 h. The substances used to derive hepatocyte death include CCl4, ActD, H2O2, doxorubicin, anti-Fas Ab/Actinomycin D, acetaminophen, EtOH, CdCl2, palmitate, stearate, cyclophosphamide, terfenadine, diclofenac, simvastatin, and adefovir. Primary hepatocytes were isolated using the method of Seglen P O (Experimental Cell Research 74 (1972) pp 450-454). Briefly, hepatocytes were isolated according to the two-step collagenase perfusion method, and dead cells were removed by low speed (500 rpm) centrifugation for 10 min using percoll gradient (Kreamer B L etc, In Vitro Cellular & Developmental Biology 22 (1986) pp 201-211). During this step, the viability of cells was maintained 90% or above. The cells were suspended in HepatoZYME media (Gibco BRL), and the number of cells was counted. 1.5×10^4 cells in 100 μl were placed into the collagen-coated 96-well plate (BD biocoat), and adhered on the bottom for 3-4 h.
In order to assess the hepatocyte protective effect, above adhered cells were pretreated with the Example compounds for 30 min. At this time, the concentration of the Example compounds were serially diluted by 2-fold or 3-fold over 5 steps starting from 30 uM, 10 uM or 1 uM depending on the experiments, and the final concentration of DMSO was adjusted to 0.2%. 30 min after the treatment by compounds, cells were treated by the substances deriving hepatocyte death or hepatotoxic drugs at the concentrations indicated in Table 1. After 24-48 h, the viability of cells was determined to estimate the hepatocyte protective effects. The viability of cells was determined using WST-1 (MK-400, […]) method by the absorbance at 440 nm. Hepatocyte protective effects of the Example compounds were represented by “EC50” which was calculated from measured values. “EC50” herein means the concentration of the compound at which 50% of maximum protective effect is observed in the experiment.
On the technique in general: Tetrazolium assays rely on reduction of a dye to a coloured formazan, in cell work by metabolically active cells.
For orientation: EC50 means the concentration that produces a half-maximal response. On to `Cc1cc(NCC2CCOCC2)c2[nH]c(C3=N[C@H](CC(=O)O)CS3)cc2c1` [Example 8, [(R)-2-(5-methyl-7-(tetrahydropyran-4-yl)methylamino-1H-indol-2-yl)-4,5-dihydro-thiazol-4-yl]-acetic acid], for which the EC50 stood at 410 nM.
The same measure, in the same setting: the same measure for `OCc1csc(-c2cc3cccc(NC4CCCC4)c3[nH]2)n1` [Example 133, [2-(7-Cyclopentylamino-1H-indol-2-yl)-thiazol-4-yl]-methanol]: 310 nM.
The same measure, in the same setting: the result for `CC(=O)N1CC[C@@H](Nc2cccc3cc(C4=N[C@H](CO)CS4)[nH]c23)C1` [Example 43, {(R)-2-[7-((3R)-1-acetylpyrrolidin-3-yl)amino-1H-indol-2-yl]-4,5-dihydro-1,3-thiazol-4-yl}-methanol] reads 1000 to 10000 nM; that for `O=C(O)C[C@H]1CSC(c2cc3cccc(NC4CCOCC4)c3[nH]2)=N1` [Example 11, [(S)-2-(7-(tetrahydropyran-4-yl)amino-1H-indol-2-yl)-4,5-dihydro-thiazol-4-yl]-acetic acid], 2800 nM; that for `Cc1cc(NC2CCCC2)c2[nH]c(-c3ncc(CO)s3)cc2c1` [Example 130, [2-(5-Methyl-7-cyclopentylamino-1H-indol-2-yl)-thiazol-5-yl]-methanol], 100 nM.
On the same count and under the same terms, the same measure for `O=C(O)[C@@H]1CSC(c2cc3cccc(NC4CCOCC4)c3[nH]2)=N1` [Example 78, [(R)-2-(7-(tetrahydropyran-4-yl)amino-1H-indol-2-yl)-4,5-dihydro-thiazol-4-yl]-carboxylic acid]: 29400 nM.
In the case of `OC[C@@H]1CSC(c2cc3cccc(NC4CCOC4)c3[nH]2)=N1` (stereo partly drawn) [Example 52, [(R)-2-(7-(tetrahydrofuran-3-yl)amino-1H-indol-2-yl)-4,5-dihydro-thiazol-4-yl]-methanol], the 50% effective concentration (EC50) was 750 nM.
Same read-out and setting: the result for `O=C(O)C[C@H]1CSC(c2cc3cc(Oc4ccccc4)cc(NC4CCCC4)c3[nH]2)=N1` [Example 50, [(S)-2-(5-phenoxy-7-cyclopentylamino-1H-indol-2-yl)-4,5-dihydro-thiazol-4-yl]-acetic acid] reads 250 nM.
Same read-out and setting: the same measure for `OCc1cc(NC2CCCC2)c2[nH]c(C3=N[C@H](CO)CS3)cc2c1` [Example 6, (R)-2-[7-cyclopentylamino-5-(hydroxymethyl)-1H-indol-2-yl]-4,5-dihydro-thiazol-4-yl-methanol]: 4930 nM.
As for `Clc1cc(NC2CCOCC2)c2[nH]c(C3=N[C@@H](CCN4CCN(c5ccccn5)CC4)CS3)cc2c1` [Example 254, (5-Chloro-2-{(S)-4-[1-(pyridin-2-yl)piperazin-4-yl-ethyl]-4,5-dihydro-thiazol-2-yl}-1H-indol-7-yl)-(tetrahydropyran-4-yl)-amine], the 50% effective concentration (EC50) was found to be 1000 nM.
Still for that read-out and setting: the result for `Cc1cc(NC2CCCC2)c2[nH]c(C3=N[C@@H](CC(=O)O)CO3)cc2c1` [Example 119, [(S)-2-(5-methyl-7-cyclopentylamino-1H-indol-2-yl)-4,5-dihydro-oxazol-4-yl]-acetic acid] reads 170 nM; that for `CC(=O)Nc1cc(NC2CCCC2)c2[nH]c(C3=N[C@H](CO)CS3)cc2c1` [Example 38, [(R)-2-(5-acetylamino-7-cyclopentylamino-1H-indol-2-yl)-4,5-dihydro-thiazol-4-yl]-methanol], 2000 nM.
On to `COC(=O)c1csc(-c2cc3cccc(NC4CCCC4)c3[nH]2)n1` [Example 134, [2-(7-Cyclopentylamino-1H-indol-2-yl)-thiazol-4-yl]-carboxylic acid methyl ester], for which the EC50 came out at 510 nM.
On the same count and under the same terms, the same measure for `CCOc1cc(NC2CCCC2)c2[nH]c(C3=N[C@H](CCC(=O)O)CS3)cc2c1` [Example 115, 3-[(R)-2-(5-ethoxy-7-cyclopentylamino-1H-indol-2-yl)-4,5-dihydro-thiazol-4-yl]-propionic acid]: less than 1000 nM; for `CCOc1cc(NC2CCCC2)c2[nH]c(C3=N[C@@H](CC(=O)O)CS3)cc2c1` [Example 47, [(S)-2-(5-ethoxy-7-cyclopentylamino-1H-indol-2-yl)-4,5-dihydro-thiazol-4-yl]-acetic acid]: 360 nM.
Turning to `O=C(O)C[C@@H]1CSC(c2cc3cc(F)cc(NC4CCCC4)c3[nH]2)=N1` [Example 71, [(R)-2-(5-fluoro-7-cyclopentylamino-1H-indol-2-yl)-4,5-dihydro-thiazol-4-yl]-acetic acid], the EC50 was 1100 nM.
`FCc1nnc2n1CCN(CC[C@H]1CSC(c3cc4cc(Oc5ccccc5)cc(NC5CCCC5)c4[nH]3)=N1)C2` [Example 232, Cyclopentyl-(5-phenoxy-2-{(S)-4-[2-(3-fluoromethyl-5,6-dihydro-8H-[1,2,4]triazolo[4,3-a]pyrazin-7-yl)-ethyl]-4,5-dihydro-thiazol-2-yl}-1H-indol-7-yl)-amine]: the EC50 is 240 nM.
Same read-out and setting: the same measure for `Cc1cc(NC2CCOCC2)c2[nH]c(C3=N[C@@H](CC(=O)O)CO3)cc2c1` [Example 120, [(S)-2-(5-methyl-7-(tetrahydropyran-4-yl)amino-1H-indol-2-yl)-4,5-dihydro-oxazol-4-yl]-acetic acid]: 1120 nM; for `OC[C@@H]1CSC(c2cc3cccc(NC4CCOCC4)c3[nH]2)=N1` [Example 51, [(R)-2-(7-(tetrahydropyran-4-yl)amino-1H-indol-2-yl)-4,5-dihydro-thiazol-4-yl]-methanol]: 600 nM; for `Cc1cc(NCC2CCOCC2)c2[nH]c(C3=N[C@@H](CCN4CCNC(=O)C4)CS3)cc2c1` [Example 253, (5-Methyl-2-{(S)-4-[2-oxopiperazin-4-yl-ethyl]-4,5-dihydro-thiazol-2-yl}-1H-indol-7-yl)-(tetrahydropyran-4-yl)methyl-amine]: 200 nM.
The same measure, in the same setting: the same measure for `Cc1cc(NC2CCC2)c2[nH]c(C3=N[C@@H](CC(=O)O)CS3)cc2c1` [Example 19, [(S)-2-(5-methyl-7-cyclobutylamino-1H-indol-2-yl)-4,5-dihydro-thiazol-4-yl]-acetic acid]: 350 nM; for `NC[C@@H]1CSC(c2cc3cccc(NC4CCCC4)c3[nH]2)=N1` [Example 173, [2-((R)-4-aminomethyl-4,5-dihydro-thiazol-2-yl)-1H-indol-7-yl]-cyclopentyl-amine]: 1980 nM; for `OC[C@@H]1CSC(c2cc3cc(Oc4cccnc4)cc(NC4CCOCC4)c3[nH]2)=N1` [Example 62, [(R)-2-(5-(pyridin-3-yl)oxy-7-(tetrahydropyran-4-yl)amino-1H-indol-2-yl)-4,5-dihydro-thiazol-4-yl]-methanol]: 3770 nM.
As for `O=C(O)C[C@@H]1CSC(c2cc3cc(Oc4cccnc4)cc(NC4CCOCC4)c3[nH]2)=N1` [Example 90, [(R)-2-(5-(pyridin-3-yl)oxy-7-(tetrahydropyran-4-yl)amino-1H-indol-2-yl)-4,5-dihydro-thiazol-4-yl]-acetic acid], the EC50 was 7920 nM.
The same measure, in the same setting: the same measure for `Cc1cc(NC2CCOC2)c2[nH]c(C3=N[C@@H](CC(=O)O)CS3)cc2c1` (stereo partly drawn) [Example 20, [(S)-2-(5-methyl-7-(tetrahydrofuran-3-yl)amino-1H-indol-2-yl)-4,5-dihydro-thiazol-4-yl]-acetic acid]: 5770 nM; for `c1ccc(Oc2cc(NC3CCCC3)c3[nH]c(C4=N[C@H](CCN5CCCC5)CS4)cc3c2)cc1` [Example 246, (5-Phenoxy-2-{(R)-4-[pyrrolidin-1-yl-ethyl]-4,5-dihydro-thiazol-2-yl}-1H-indol-7-yl)-cyclopentyl-amine]: 350 nM.
Still for that read-out and setting: the same measure for `O=C(O)C[C@H]1CSC(c2cc3cc(Oc4ccccc4)cc(NC4CCOCC4)c3[nH]2)=N1` [Example 16, [(S)-2-(5-phenoxy-7-(tetrahydropyran-4-yl)amino-1H-indol-2-yl)-4,5-dihydro-thiazol-4-yl]-acetic acid]: 1290 nM.

Staying with this assay, now noted: primary rat hepatocytes pretreated with compound for 30 min, then doxorubicin; viability by WST-1 after 24-48 h.
As for `CC(C)(C)OC(=O)N1CCN(CC[C@H]2CSC(c3cc4cc(Oc5ccccc5)cc(NC5CCCC5)c4[nH]3)=N2)CC1` [Example 231, t-Butyl-(4-{2-[(S)-2-(5-phenoxy-7-cyclopentylamino)-1H-indol-2-yl)-4,5-dihydro-thiazol-4-yl]-ethyl}-piperazine-1-carboxylate], the EC50 stood at 200 nM.
The same measure, in the same setting: the result for `OCC[C@@H]1CSC(c2cc3cc(Cl)cc(NC4CCOCC4)c3[nH]2)=N1` [Example 67, [(R)-2-(5-chloro-7-(tetrahydropyran-4-yl)amino-1H-indol-2-yl)-4,5-dihydro-thiazol-4-yl]-ethanol] reads more than 1000 nM.
The same measure, in the same setting: the same measure for `Fc1ccccc1N1CCN(CC[C@H]2CSC(c3cc4cc(Oc5ccccc5)cc(NC5CCCC5)c4[nH]3)=N2)CC1` [Example 236, (5-Phenoxy-2-{(S)-4-[(2-fluorophenyl)piperazine-ethyl]-4,5-dihydro-thiazol-2-yl}-1H-indol-7-yl)-cyclopentyl-amine]: 160 nM.
